From ChEMBL document CHEMBL1137113, “A convenient and biogenetic type synthesis of few naturally occurring chromeno dihydrochalcones and their in vitro antileishmanial activity” (2004)
Active and inactive are the calls of the source. The calls are words filed in the database; no cut-off is given here.

How the values were obtained:
Leishmania donovani [1] = assay: In-vitro antileishmanial activity was tested against intracellular amastigotes of Leishmania donovani at dose 50 ug/mL; IA is inactive; type: functional, organism-based
Leishmania donovani [2] = assay: In-vitro antileishmanial activity was tested against extracellular promastigotes of Leishmania donovani at dose of 50 ug/mL; type: functional
Leishmania donovani [3] = assay: In-vitro antileishmanial activity was tested against intracellular amastigotes of Leishmania donovani at dose 50 ug/mL; type: functional
Leishmania donovani [4] = assay: In-vitro antileishmanial activity was tested against extracellular promastigotes of Leishmania donovani at dose of 50 ug/mL; IA is inactive; type: functional, organism-based
Leishmania donovani [5] = assay: In-vitro antileishmanial activity was tested against intracellular amastigotes of Leishmania donovani at dose 5 ug/mL; type: functional
Leishmania donovani [6] = assay: In-vitro antileishmanial activity was tested against extracellular promastigotes of Leishmania donovani at dose of 5 ug/mL; type: functional
Leishmania donovani [7] = assay: In-vitro antileishmanial activity was tested against intracellular amastigotes of Leishmania donovani at dose 50 ug/mL; Toxic; type: functional, organism-based

Compound	inhibition at 50 µg/mL (Leishmania donovani [2])	inhibition at 50 µg/mL (Leishmania donovani [3])	also measured
CC1(C)C=Cc2c(ccc(C(=O)CCc3ccc(O)c(O)c3)c2O)O1	30%	–	inhibition (Leishmania donovani [1]): inactive
COc1ccc(CCC(=O)c2ccc3c(c2O)C=CC(C)(C)O3)cc1	78%	47%	–
COc1ccc(/C=C/C(=O)c2ccc(O)cc2O)cc1	60%	15%	–
Stibanate	–	–	inhibition (Leishmania donovani [4]): inactive; inhibition (Leishmania donovani [3]): 85%
COc1ccc(/C=C/C(=O)c2ccc3c(c2O)C=CC(C)(C)O3)cc1	85%	53%	–
CC1(C)C=Cc2c(ccc(C(=O)/C=C/c3ccc(O)cc3)c2O)O1	84%	74%	–
N=C(N)c1ccc(OCCCCCOc2ccc(C(=N)N)cc2)cc1 [PENTAMIDINE]	–	–	inhibition at 5 µg/mL (Leishmania donovani [5]): 50%; inhibition at 5 µg/mL (Leishmania donovani [6]): 97%
COc1ccc(CCC(=O)c2ccc(O)cc2O)cc1OC	79%	–	inhibition (Leishmania donovani [7]): Toxic
COc1ccc(CCC(=O)c2ccc3c(c2O)C=CC(C)(C)O3)cc1OC	–	22%	inhibition (Leishmania donovani [4]): inactive
CC1(C)C=Cc2c(ccc(C(=O)CCc3ccc(O)cc3)c2O)O1	89%	–	inhibition (Leishmania donovani [7]): Toxic
